Results: publication PMC10304880, “Novel Tryptanthrin Derivatives with Selectivity as c–Jun N–Terminal Kinase (JNK) 3 Inhibitors” (Molecules, 2023)

Experiments:
[1] = CellTiter-Glo cytotoxicity in MonoMac-6 cells; type: cell-based; conditions: human, 24 h incubation
Protocol: (§1) Prior to evaluation of the compounds in cell-based assays, we measured their cytotoxicity in human monocytic THP-1Blue and MonoMac-6 cells during a 24 h incubation. […] Thus, these compounds were all excluded from subsequent testing in these cell lines.
(§2) Cytotoxicity was analyzed with a CellTiter-Glo Luminescent Cell Viability Assay Kit from Promega (Madison, WI, USA), according to the manufacturer’s protocol. Cells were treated with the compound under investigation and cultivated for 24 h. After treatment, the cells were allowed to equilibrate to room temperature for 30 min, substrate was added, and the luminescence measured using a Fluoroscan Ascent FL (Thermo Fisher Scientific, Waltham, MA, USA). The cell IC50 values were calculated by plotting the percentage inhibition against the logarithm of inhibitor concentration (at least five points).

JNK3 = biological target: T1, JNK3 (Homo sapiens, UniProt P53779); test: KINOMEscan JNK3 binding (Kd); conditions: for Kd: KINOMEscan, 12-point series, max 33 μM, duplicate; for Selectivity Index JNK1/JNK3 / Selectivity Index JNK2/JNK3: ratio of Kd values
T1 construct: purchased Eurofins Pharma Discovery (KINOMEscan service)
T1 sequence (P53779 whole entry): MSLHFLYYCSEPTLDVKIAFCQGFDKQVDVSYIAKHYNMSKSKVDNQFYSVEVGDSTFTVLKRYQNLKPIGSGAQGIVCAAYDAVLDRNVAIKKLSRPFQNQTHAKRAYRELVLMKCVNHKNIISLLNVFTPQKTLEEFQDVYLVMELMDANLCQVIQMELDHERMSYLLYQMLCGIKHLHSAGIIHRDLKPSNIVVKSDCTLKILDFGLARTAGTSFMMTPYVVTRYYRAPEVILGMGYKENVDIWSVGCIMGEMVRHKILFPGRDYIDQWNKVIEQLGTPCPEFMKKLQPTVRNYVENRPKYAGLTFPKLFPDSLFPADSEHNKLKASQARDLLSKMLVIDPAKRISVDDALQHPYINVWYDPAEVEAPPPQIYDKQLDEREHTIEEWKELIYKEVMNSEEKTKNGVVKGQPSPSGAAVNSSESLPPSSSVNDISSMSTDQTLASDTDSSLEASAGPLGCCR
Protocol: (§3) All compounds were evaluated for their ability to bind to JNK1-3 using the KINOMEscan platform.
(§4) Compounds were submitted for dissociation constant (Kd) determination using KINOMEscan (Eurofins Pharma Discovery, San Diego, CA, USA), as described previously. […] Primary screening at fixed concentrations of compounds was performed in duplicate. To determine dissociation constant Kd, a 12-point half-log dilution series (a maximum concentration of 33 μM) was used.

[2] = test system: IL-6 production in MonoMac-6 cells; test: LPS-induced IL-6 production in MonoMac-6 cells (ELISA); type: cell-based, human; conditions: 250 ng/mL LPS, 24 h
Protocol: All cells were cultured at 37 °C in a humidified atmosphere containing 5% CO2. Human THP-1Blue monocytic cells obtained from InvivoGen (San Diego, CA, USA) were cultured in RPMI 1640 medium (Mediatech Inc., Herndon, VA, USA) supplemented with 10% (v/v) fetal bovine serum (FBS), 4.5 g/L glucose, 100 μg/mL streptomycin, 100 U/mL penicillin, 100 μg/mL phleomycin (Zeocin), and 10 μg/mL blasticidin S. Human monocyte-macrophage MonoMac-6 cells (Deutsche Sammlung von Mikroorganismen und Zellkulturen GmbH, Braunschweig, Germany) were grown in RPMI 1640 medium supplemented with 10% (v/v) FBS, 10 μg/mL bovine insulin, 100 μg/mL streptomycin, and 100 U/mL penicillin.
(§5) Panel (A) THP-1Blue cells were pretreated with the indicated compounds or DMSO for 30 min, followed by addition of 250 ng/mL LPS or buffer for 24 h. […] Panel (B) MonoMac-6 cells were pretreated with the indicated compounds or DMSO for 30 min, followed by addition of 250 ng/mL LPS or buffer for 24 h. Production of IL-6 in the supernatants was evaluated with ELISA. The data in each panel are presented as the mean ± S.D. of triplicate samples from one experiment that is representative of three independent experiments.

JNK2 = biological target: T2, JNK2 (Homo sapiens, UniProt P45984); test: KINOMEscan JNK2 binding (Kd); conditions: 12-point series, max 33 μM, duplicate
T2 construct: purchased Eurofins Pharma Discovery (KINOMEscan service)
T2 sequence (P45984 whole entry): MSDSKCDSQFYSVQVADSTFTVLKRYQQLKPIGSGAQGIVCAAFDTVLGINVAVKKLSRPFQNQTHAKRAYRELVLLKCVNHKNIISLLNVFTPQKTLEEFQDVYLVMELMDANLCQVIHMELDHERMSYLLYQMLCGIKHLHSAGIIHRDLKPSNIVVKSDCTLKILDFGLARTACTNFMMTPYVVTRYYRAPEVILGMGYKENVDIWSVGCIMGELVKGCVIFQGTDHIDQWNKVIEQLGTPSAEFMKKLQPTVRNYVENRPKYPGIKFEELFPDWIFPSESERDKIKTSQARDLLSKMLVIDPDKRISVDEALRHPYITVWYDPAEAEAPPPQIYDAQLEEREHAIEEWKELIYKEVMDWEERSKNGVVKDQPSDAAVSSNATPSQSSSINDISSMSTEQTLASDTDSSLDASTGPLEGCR
Protocol: as §3, §4

[3] = CellTiter-Glo cytotoxicity in THP-1Blue cells; type: cell-based; conditions: human, 24 h incubation
Protocol: as §1, §2

JNK1 = biological target: T3, JNK1 (Homo sapiens, UniProt P45983); test: KINOMEscan JNK1 binding (Kd); conditions: 12-point series, max 33 μM, duplicate
T3 construct: purchased Eurofins Pharma Discovery (KINOMEscan service)
T3 sequence (P45983 whole entry): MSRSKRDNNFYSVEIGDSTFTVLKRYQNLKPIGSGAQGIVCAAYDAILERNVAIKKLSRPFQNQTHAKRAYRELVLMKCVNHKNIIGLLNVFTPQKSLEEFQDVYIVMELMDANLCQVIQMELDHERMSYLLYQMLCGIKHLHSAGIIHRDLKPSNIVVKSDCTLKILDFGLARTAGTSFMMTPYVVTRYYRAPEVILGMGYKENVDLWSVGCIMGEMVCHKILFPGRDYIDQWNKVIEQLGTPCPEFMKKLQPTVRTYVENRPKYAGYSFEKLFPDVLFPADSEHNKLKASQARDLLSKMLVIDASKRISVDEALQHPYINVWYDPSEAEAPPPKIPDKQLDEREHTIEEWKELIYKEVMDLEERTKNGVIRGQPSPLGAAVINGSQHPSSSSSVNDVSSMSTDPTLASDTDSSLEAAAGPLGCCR
Protocol: as §3, §4

[4] = test system: NF-κB/AP-1 transcriptional activity in THP-1Blue cells; test: LPS-induced NF-κB/AP-1 alkaline phosphatase reporter assay in THP-1Blue cells; type: cell-based; conditions: Homo sapiens, 30 min pretreatment, 250 ng/mL LPS, 24 h; read-out: AP Production in THP–1Blue IC50
Protocol: Activation of AP-1/NF-κB was measured using an alkaline phosphatase reporter gene assay in THP1-Blue cells. Human monocytic THP-1Blue cells were stably transfected with a secreted embryonic alkaline phosphatase gene that was under the control of a promoter inducible by AP-1/NF-κB.
as §5, with “Figure 2 Effect of compounds 4d and 4e on NF-κB/AP-1 activity and IL-6 production. Panel (A)” for “Panel (A)”

[5] = Homo sapiens, MONO-MAC-6, 30 min pretreatment

SMILES	melting point	Kd (JNK3) [µM]	Selectivity Index JNK1/JNK3 (JNK3)	Selectivity Index JNK2/JNK3 (JNK3)	IC50 [2, 5] [µM]	Kd (JNK2) [µM]	Kd (JNK1) [µM]	IC50 [4] [µM]	IC50 ([2]; 30 min pretreatment) [µM]	selectivity index (JNK3 versus JNK1 and JNK2) (JNK3)	IC50 at 24 h [1] [µM]	IC50 at 24 h [3] [µM]
O=c1c2cc([N+](=O)[O-])ccc2nc2n1-c1ccccc1C2=NO [Compound 4n, 2-Nitroindolo[2,1-b]quinazolin-6,12-dione Oxime]	> 225 °C (dec.)	8.7 ± 1	>3.9	>3.9	9.6 ± 1.3	> 30	> 30	–	–	–	> 50	39.3 ± 3.1
O=c1c2ccccc2nc2n1-c1ccc(Br)cc1C2=NO [Compound 4b, 8-Bromoindolo[2,1-b]quinazolin-6,12-dione Oxime]	> 225 °C (dec.)	0.41 ± 0.07	7.8	20.7	15.5 ± 3.8	8.5 ± 3.2	3.2 ± 0.21	2.1 ± 0.7	–	> 7	> 50	> 50
CCc1ccc2c(c1)C(=NO)c1nc3ccccc3c(=O)n1-2 [Compound 4c, 8-Ethylindolo[2,1-b]quinazolin-6,12-dione Oxime]	> 225 °C (dec.)	0.49 ± 0.09	5.3	2.7	–	1.3 ± 0.01	2.6 ± 0.4	0.7 ± 0.2	–	–	13.3 ± 1.3	> 50
Cc1cccc2c1C(=NO)c1nc3ccccc3c(=O)n1-2 [Compound 4g, 7-Methylindolo[2,1-b]quinazolin-6,12-dione Oxime]	> 225 °C (dec.)	0.4 ± 0.04	15.5	35	25.2 ± 5.3	14 ± 0.7	6.2 ± 1.8	> 50	–	–	> 50	> 50
O=c1c2cc(Br)ccc2nc2n1-c1ccc([N+](=O)[O-])cc1C2=NO [Compound 4f, 2-Bromo-8-nitroindolo[2,1-b]quinazolin-6,12-dione Oxime]	> 225 °C (dec.)	> 30	–	–	–	> 30	> 30	–	–	–	2.7 ± 0.6	3.8 ± 0.9
O=c1c2cc(Br)ccc2nc2n1-c1ccccc1C2=NO [Compound 4j, 2-Bromoindolo[2,1-b]quinazolin-6,12-dione Oxime]	> 225 °C (dec.)	1.9 ± 0.4	2.2	3.9	–	7.4 ± 0.6	4.1 ± 0.6	–	–	–	8.2 ± 1.6	12.5 ± 2.3
O=c1c2ccc([N+](=O)[O-])cc2nc2n1-c1ccccc1C2=NO [Compound 4m, 3-Nitroindolo[2,1-b]quinazolin-6,12-dione Oxime]	> 225 °C (dec.)	6.1 ± 0.4	>5.6	>5.6	1.9 ± 0.3	> 30	> 30	8.3 ± 0.2	–	–	> 50	> 50
O=c1c2cc(C(F)(F)F)ccc2nc2n1-c1ccccc1C2=NO [Compound 4i, 2-Trifluoromethylindolo[2,1-b]quinazolin-6,12-dione Oxime]	> 225 °C (dec.)	11 ± 1.4	>3	>3	–	> 30	> 30	–	–	–	5.7 ± 1.2	5.6 ± 1.2
O=c1c2ccc(Br)cc2nc2n1-c1ccccc1C2=NO [Compound 4k, 3-Bromoindolo[2,1-b]quinazolin-6,12-dione Oxime]	> 225 °C (dec.)	5.7 ± 1.8	>6	>6	–	> 30	> 30	–	–	–	> 50	24.1 ± 2.7
O=c1c2ccccc2nc2n1-c1ccc([N+](=O)[O-])cc1C2=NO [Compound 4a, 8-Nitroindolo[2,1-b]quinazolin-6,12-dione Oxime]	–	0.86 ± 0.042	>40	>40	–	> 30	> 30	–	–	> 7	4.1 ± 0.7	8.4 ± 0.9

More lines, main results first:

melting point	Kd (JNK3) [µM]	Selectivity Index JNK1/JNK3 (JNK3)	Selectivity Index JNK2/JNK3 (JNK3)	IC50 [2, 5] [µM]	Kd (JNK2) [µM]	Kd (JNK1) [µM]	IC50 [4] [µM]	IC50 ([2]; 30 min pretreatment) [µM]	selectivity index (JNK3 versus JNK1 and JNK2) (JNK3)	SMILES	IC50 at 24 h [1] [µM]	IC50 at 24 h [3] [µM]
206 to 208 °C	0.27 ± 0.01	1.7	–	–	1.5 ± 0.6	0.47 ± 0.08	3.5 ± 1.2	–	–	O=C(ON=C1c2ccccc2-n2c1nc1ccccc1c2=O)c1ccc2c(c1)OCO2 [Compound 5e, 6-(((Benzo[d][1,3]dioxol-5-carbonyl)oxy)imino)indolo[2,1-b]quinazolin-12(6H)-one]	27.3 ± 1.4	> 50
–	–	–	–	–	–	–	3.8 ± 1.1	–	–	O=c1c2ccccc2nc2n1-c1ccccc1C2=NO [TRYP-Ox, tryptanthrin-6-oxime, reference compound]	> 50	> 50
> 300 °C (dec.)	0.87 ± 0.16	4.3	7.9	< 1	6.9 ± 0.2	3.7 ± 0.5	8.1 ± 0.1	0.8 ± 0.1	–	Cc1ccc2c(c1)C(=NO)c1nc3ccc(C)cc3c(=O)n1-2 [Compound 4o, 2,8-Dimethylindolo[2,1-b]quinazolin-6,12-dione Oxime]	> 50	> 50
262 to 263 °C	> 30	–	–	1.3 ± 0.4	> 30	> 30	4.6 ± 0.3	–	–	COc1ccc2c(c1)C(=NO)c1nc3ccc(OC)cc3c(=O)n1-2 [Compound 4q, 2,8-Dimethoxylindolo[2,1-b]quinazolin-6,12-dione Oxime]	> 50	> 50
250 to 251 °C	> 30	–	–	–	> 30	> 30	–	–	–	O=c1c2cc(Br)ccc2nc2n1-c1ccc(Br)cc1C2=NO [Compound 4t, 2,8-Dibromoindolo[2,1-b]quinazolin-6,12-dione Oxime]	9.2 ± 2.1	6.6 ± 0.3
197 °C	0.7 ± 0.12	2.4	4.0	12.4 ± 1.3	2.8 ± 0.5	1.7 ± 0.4	8.1 ± 2.2	–	–	COC(=O)ON=C1c2ccccc2-n2c1nc1ccccc1c2=O [Compound 5c, 6-(((Methoxycarbonyl)oxy)imino)indolo[2,1-b]quinazolin-12(6H)-one]	> 50	> 50
> 300 °C (dec.)	> 30	–	–	–	> 30	> 30	–	–	–	O=c1c2ccc(Br)cc2nc2n1-c1cc(Br)ccc1C2=NO [Compound 4s, 3,9-Dibromoindolo[2,1-b]quinazolin-6,12-dione Oxime]	16.9 ± 3.4	49.1 ± 8.3
292 to 293 °C	3.2 ± 1.1	1.4	1.8	–	5.8 ± 1.6	4.6 ± 0.6	–	–	–	COc1ccc2c(c1)-n1c(nc3cc(OC)ccc3c1=O)C2=NO [Compound 4r, 3,9-Dimethoxylindolo[2,1-b]quinazolin-6,12-dione Oxime]	4.3 ± 0.9	8.3 ± 1.3
